Source: PubChem BioAssay AID1419 (Emory University Molecular Libraries Screening Center, 2008)
Calls of active or inactive are those of the source. No rule for the calls is given here.

Assay: blockers of an Epstein-Barr virus protein-peptide interaction – biochemical, fluorescence polarization, dose response (AID 1419)
Conditions: cell-free protein-peptide binding, 2 h; for fold change: measured here: P channel fold over control, at 54 µM

Structure (SMILES)	IC50	fold change
COc1cc(/C=C2\SC(=O)N(c3ccc(Cl)cc3)C2=O)cc([N+](=O)[O-])c1O	4.58 µM	1.13
CCCCCC(=O)N/N=C/c1ccc(N(C)C)cc1	> 54 µM (inactive)	1.05
Cn1c(/N=C/c2c(O)ccc3ccccc23)nc2ccccc21	3.17 µM	41.9
Cc1cc(C)c[n+](-c2nc3ccccc3nc2[N-]S(=O)(=O)c2ccc(Br)s2)c1	7.26 µM	3.69
CCCCN1C(=O)C2Cc3c([nH]c4ccccc34)CN2C1=S (centres undefined)	2.73 µM	5.04
CCOC(=O)c1ccc2c(c1)C1C=CCC1C(C(=O)O)N2 (centres undefined)	4.11 µM	1.2
c1ccc(-c2cn3nc(-c4ccccc4)c(-c4ccccc4)nc3n2)cc1	0.78 µM	21.2
CC(=O)Nc1ccc(NC2=Nc3ccccc3N3C2=Nc2c(c(C)nn2-c2ccccc2)C3c2ccccc2)cc1 (centres undefined)	4.1 µM	3.9
COC(=O)CN1C(=S)N(c2ccc(OC)cc2)C(=O)/C1=C/c1ccc(N2CCOCC2)cc1	6.67 µM	2.83
O=C1/C(=C/c2ccco2)Oc2c1ccc(O)c2CN1CCCCC1	1.93 µM	22.1
CN1CCc2cc3c(c4c2[C@H]1[C@H](O)c1ccccc1-4)OCO3	10.3 µM	2.19
O=C(Cc1nc2ccccc2[nH]c1=O)c1ccccc1	9.54 µM	5.07
Brc1ccc(C2=CC(c3ccco3)n3ncnc3N2)cc1 (centres undefined)	1.09 µM	6.05
COC(=O)c1cc2c(C)cc3ccc(C)cn3c-2c1C(=O)OC	9.57 µM	4.48
COc1ncnc2c1NC1=C(S2)C(=NCCC(=O)O)CC(C)(C)C1	0.93 µM	8.12
COc1ccc(-c2nnc(Nc3ccc(S(=O)(=O)Nc4nccs4)cc3)c3ccccc23)cc1	> 54 µM (inactive)	1.09
Nc1ccc(-c2nc3ccc(C(=O)O)cc3s2)cc1	> 54 µM (inactive)	1
COC(=O)C1=COC(C)C2CN3CCc4c([nH]c5cc(OC)c(OC)cc45)C3CC12 (centres undefined)	8.76 µM	2.6
COCCN=c1scc(-c2ccco2)n1/N=C/c1ccc(O)c(O)c1O	12 µM	1.04
CCOC(=O)[C@@]1(C#N)C(c2ccc(Cl)c(Cl)c2)[C@H](C(N)=O)N2C=C(C(C)=O)C=C[C@H]21 (some centres undefined)	1.41 µM	9.48
COc1cc([N+](=O)[O-])ccc1-c1ccc(/C=N/NC(=O)c2ccccc2O)o1	> 54 µM (inactive)	0.5

Structure (SMILES)	IC50	fold change
OCCNc1nc(Nc2ccc(Br)cc2)nc2ccccc12	> 54 µM (inactive)	0.987
N=c1oc2cc(O)ccc2cc1C(=O)Nc1ccccn1	6.67 µM	5.39
Cc1ccc(N=Nc2c(N)[nH]n3c(=O)cc(-c4ccccc4)nc23)cc1	> 54 µM (inactive)	1.02
CNC(=S)NN(c1ccccc1)c1ccccc1	> 54 µM (inactive)	1.01
COc1ccc(N=Nc2nc3cc(Br)c(Br)cc3n2C)c(OC)c1	2.95 µM	5.37
Cc1nn(-c2ccccc2)c2c1C(c1ccc(O)c(O)c1)N1C(=N2)C(Nc2ccccc2)=Nc2ccccc21 (centres undefined)	6.05 µM	3.94
O=C(CSc1nc2ncccc2[nH]1)Nc1ccc2c(c1)OCO2	> 54 µM (inactive)	1.02
CCN(CC)c1ccc(/C=c2/sc3nnc(-c4ccccc4C)n3c2=O)cc1	3.39 µM	17.4
COC(=O)c1ccc2c(=O)sc(N3CCC(C(N)=O)CC3)nc2c1	4 µM	2.35
N#CC1CC(c2ccc([N+](=O)[O-])cc2)=NN1c1ccc([N+](=O)[O-])cc1 (centres undefined)	3.86 µM	6.23
O=c1c(O)cccc2cc(O)c(O)c(O)c12	2.85 µM	1.86
CCOc1cc(/C=N/NC(=O)c2ccc(-c3csc(Nc4ccc(C)cc4)n3)cc2)ccc1OCC(=O)O	14.8 µM	1.08
O=C(OCCN1C(=O)c2cccc3c(N4CCOCC4)ccc(c23)C1=O)c1ccc(Cl)cc1	4.07 µM	53.3
Cc1ccc(C2C3=C(CCCC3=O)Nc3[nH]c(=S)[nH]c(=O)c32)cc1 (centres undefined)	> 54 µM (inactive)	0.983
O=C(COC(=O)c1cccnc1)NC1CCCc2ccccc21 (centres undefined)	> 54 µM (inactive)	1.84
Cc1cc2c(cc1C)NC(c1c(C)n(C)n(-c3ccccc3)c1=O)C1=C(CC(C)(C)CC1=O)N2 (centres undefined)	3.25 µM	3.49
CCN1C(=O)/C(=C/C2=Cc3ccccc3OC2C)SC1=S (centres undefined)	17.2 µM	5.33
O=C(C1=NN(c2ccccc2)C2C(=O)N(c3ccc(Cl)cc3)C(=O)C12)c1ccccc1 (centres undefined)	> 54 µM (inactive)	5.95
Cc1[nH]c(=O)[nH]c(=O)c1CSCC(=O)OCC(=O)Nc1ccccn1	> 54 µM (inactive)	1.09
N#C/C(=C(/O)c1ccc(-c2cccc([N+](=O)[O-])c2)o1)c1nc2ccccc2s1	7.24 µM	1.09
Cc1nnc(NC(=O)CSc2cn(CCNC(=O)c3ccccc3)c3ccccc23)s1	> 54 µM (inactive)	1.05

Structure (SMILES)	IC50	fold change
CN1C(=O)N(C)c2ccc(C=O)c3cccc1c23	4.91 µM	2.37
Cc1cc(C=C2C(=O)NC(=S)NC2=O)c(C)n1-c1ccc2c(c1)OCO2	43.5 µM (inactive)	2.39
Cc1ccc(S(=O)(=O)c2c(N)n(Cc3ccco3)c3nc4ccccc4nc23)cc1	> 54 µM (inactive)	1.41
O=C1C(Br)=Cc2cccc3cccc1c23	2 µM	7.55
COc1ccc2nc(-n3c(O)c(C4=c5ccccc5=NC4=O)[nH]c3=S)sc2c1	3.48 µM	0.923
O=c1oc2ccccc2nc1/C=C(\O)c1ccc(Br)cc1	> 54 µM (inactive)	6.17
Cc1ccccc1-n1c(SCc2c(C)noc2C)nnc1-c1cccnc1	3.57 µM	4.88
COC(=O)CCCCC1SCC(NC(=O)c2ccccc2)C1Cl (centres undefined)	10.8 µM	2.16
O=C(N=Nc1c(O)[nH]c2ccccc12)c1cc(-c2cccs2)[nH]n1	19.6 µM	0.72
CCOC(=O)c1ccc(N2C(=O)C3C(C2=O)C(C(=O)c2ccc(Cl)cc2)N2CCCC32)cc1 (centres undefined)	2.54 µM	5.32
Cc1c2ccccc2nc2c(F)c(N(C)C)c(F)c(F)c12	< 0.42 µM	8.81
COc1ccc(Cc2nnc(NC(=O)Cc3cccs3)s2)cc1OC	> 54 µM (inactive)	1.15
CN1/C(=C/C=C(C#N)C#N)C(C)(C)c2ccccc21	> 54 µM (inactive)	1.64
Nc1ccc(O)c2c1C(=O)c1ccccc1C2=O	3.1 µM	2.55
O=C(Nc1cccc(Cl)c1)c1cc(N=Nc2ccc([N+](=O)[O-])cc2Cl)ccc1O	17.7 µM	0.99
CC1CCc2cccc3c2N1c1cc(C#N)c(C#N)cc1O3 (centres undefined)	6.6 µM	8.38
Cc1ccc(N=Nc2[nH]c3ccccc3c2O)cc1	4.87 µM	27
COC(=O)c1cc(C(=O)c2ccc(Cl)cc2)n2c(=O)/c(=C\N(C)C)sc12	51.9 µM (inactive)	1.56
COc1ccc(/C=C2\CCCc3c2nc2ccccc2c3C(=O)O)cc1OC	< 0.42 µM	20.3
CCOC(=O)Cc1csc(SCC(=O)Nc2sc3c(c2C(N)=O)CCC3)n1	> 54 µM (inactive)	1.09
O=C(COc1ccccc1Cl)c1ccc[nH]1	> 54 µM (inactive)	1.08

Structure (SMILES)	IC50	fold change
CC(C)(CCl)C(=O)Nc1ccc(OC(F)(F)F)cc1	> 54 µM (inactive)	1.14
O=C(c1ccc2nc(-c3ccco3)c(-c3ccco3)nc2c1)N1CCN(c2ncccn2)CC1	> 54 µM (inactive)	1.05
CCN(CC)C(=O)CSc1nnc2nnc3cc(OC)ccc3n12	< 0.42 µM	7.06
CC1CCCCC1NC(=O)CN1C(=O)c2cccc(N)c2C1=O (centres undefined)	2.35 µM	2.47
O=[N+]([O-])c1ccccc1/C=C/C=N/n1c(-c2ccc(Cl)cc2)n[nH]c1=S	> 54 µM (inactive)	0.947
NC(=S)n1[nH]c(-c2ccc([N+](=O)[O-])cc2)c(N=Nc2cccc([N+](=O)[O-])c2)c1=O	3.71 µM	1.14
O=c1[nH]c2ccc(N=Cc3c(O)ccc4cc(Br)ccc34)cc2[nH]1	0.97 µM	7.85
COc1ccc2c(c1)c1nc3ccccc3nc1n2CC(=O)OC(C)C	1.21 µM	6.79
O=C(c1ccc(Cl)cc1)C1C2C(=O)N(c3ccccc3)C(=O)C2C2CCCN21 (centres undefined)	< 0.42 µM	8
C=CCN1C(=O)/C(=C\C=C2\N(C)c3ccccc3C2(C)C)SC1=S	5.07 µM	8.39
CCOC(=O)C1CCN(C(=O)Nc2ccc3nc(-c4ccco4)c(-c4ccco4)nc3c2)CC1	5.89 µM	2.82
CN1Cc2c(c(C#N)c(N)n(C)c2=S)CC1(C)C	> 54 µM (inactive)	1.89
COc1ccc(NC(=O)C2Cc3ccccc3CN2C(=O)c2ccccc2)cn1 (centres undefined)	8.48 µM	3.29
CC(=O)Nc1ccc2nc3c(=O)n(C)c(=O)n(C)c3nc2c1	1 µM	4.35
Cc1cc(/C=N/NC(N)=S)c(O)c(/C=N/NC(N)=S)c1	< 0.42 µM	26.6
CC(=O)[C@@H]1[C@@H]2C(=O)N(C3CCCCC3)C(=O)[C@@H]2C2c3ccccc3C=CN21 (some centres undefined)	51.9 µM (inactive)	2
COc1ccc(NC(=O)CCl)cn1	2.57 µM	2.89
Cc1noc(/C=C/c2ccc(-c3ccccc3Cl)o2)c1[N+](=O)[O-]	13.2 µM	7.6
CCCSCC(=O)Nc1ncc2c(n1)-c1ccccc1CC2	5.28 µM	2.7
